Positions of bridges follow the written chain, without caps; N, C: chain ends. Non-standard residues stand in square brackets, D forms with d. No end group written: not given here. S5 = C=CCCC[C@](C)(N)C(=O)O; βAla = NCCC(=O)O
Tested on: E-box DNA (5′-CACGTG-3′)
Test: Electrophoretic mobility shift assay (EMSA, gel shift) with fluorophore-labeled E-box oligonucleotide
Type: binding
Details: for E-box DNA binding in gel shift (in words): E-box probe
Protocol: FIG. 9 Representative electrophoretic mobility shift assay (EMSA, referred to as “Gel Shift) images of full length Myc/Max protein binding a fluorophore-labeled oligonucleotide containing an E-box binding site. Full-length Myc/Max binds in this assay with an affinity of ˜10 nM.
A fluorophore-labeled (5′-FAM) oligonucleotide containing a central E-box sequence was used (at 10 nM) to assess Myc/Max and DMD binding. This sequence was used in the Myc/Max/E-box crystal structure. […] The lower band is free E-box probe whereas the higher band is Myc/Max-bound E-box probe. Addition of excess non-labeled E-box probe (E1) competes this interaction. […] Thus, gel shift assays with the E-box probe are suitable for determining DMD (RTD) DNA-binding.
Representative gel shifts are shown for the Myc/Max heterodimer and members of the RTD2x, RTD8x and RTD7x series. Plotted are binding curves derived from the intensity of the free E-box probe (inhibition) and stable shifted band (binding).

## 913-MBS: RTD913 design with rigid meta-xylyl linker MBS (Ac-W[βAla]KRAHHNALER[2‑amino‑2‑methylhept‑6‑enoic acid]RRD[S5]IKDSK; staple 13-17; also: dimer via MBS (meta-xylyl) linker, attachment site not given here)
  E-box DNA binding in gel shift (in words): both tight and stable binding
E-box probe at 10 nM, read-out: EC50 for stable E-box binding / stable complex formation
  EC50: 0.05 to 0.1 µM
Listed as MBS
  E-box DNA binding in gel shift (in words): more stable DNA complex formation

## EMCS: RTD913 sub-class dimer with long straight-chain EMCS linker (Ac-W[βAla]KRAHHNALER[2‑amino‑2‑methylhept‑6‑enoic acid]RRD[S5]IKDSK; staple 13-17; not fully specified (residue 22); also: dimer via EMCS linker, attachment site not given here)
  E-box DNA binding in gel shift (in words): less stable complex formation

## Myc/Max: full length recombinant Myc/Max protein heterodimer
E-box oligonucleotide, read-out: binding affinity (Kd) for E-box DNA
  Kd: ~0.01 µM
  E-box DNA binding in gel shift (in words): specifically binds

## AMAS: RTD913 sub-class dimer with short straight-chain AMAS linker (Ac-W[βAla]KRAHHNALER[2‑amino‑2‑methylhept‑6‑enoic acid]RRD[S5]IKDSK; staple 13-17; not fully specified (residue 22); also: dimer via AMAS linker, attachment site not given here)
  E-box DNA binding in gel shift (in words): less stable complex formation
